Data set [1] has as its system multiple myeloma cells U266. Description: MTT test, cell viability of U266 cells. It counts as cell-based, human. The procedure: (§1) The MTT test is a standard assay addressing cell toxicity of a compound. It is based on the principle that after 3-4 hours of cell incubation with MTT (3-(4,5-dimethylthiazole-2-yl)-2,5-diphenyl tetrazolium bromide) so-called purple formazan crystals develop in living and early apoptotic cells. Dead cells don't produce formazan crystals.
(§2) Different cell lines were tested. Unless indicated differently, A549 human lung epithelial cells (derived from lung carcinoma) and L929sA murine fibroblast cells were cultured in DMEM with 10% FCS, 100 U/ml penicillin and 100 μg/ml streptomycin. Unless indicated differently, the human multiple myeloma cell lines L363, U266 and MM1.S were cultured in RPMI 1640 with Glutamax-I, supplemented with 10% FCS, 100 U/ml penicillin and 100 μg/ml streptomycin. Cells were seeded at 5000 cells/well (for adherent A549 and L929sA cells) or at 10000 cells/well (for the multiple myeloma lines in suspension) in 96 well plates. Cells were incubated in the presence of the respective synephrine compounds or vehicle (EtOH; for control test) in a final volume of 0.2 ml for 24 or 48 hours at 37° C. Subsequently, 20 μl of MTT solution (5 mg/ml in phosphate-buffered saline) was added to each well. After 4 hours incubation at 37° C., 80 μl of the extraction buffer (10% SDS, 0.01 M HCl) was added. After overnight incubation at room temperature, the optical densities at 590 nm were measured. Results are illustrated in FIGS. 2 to 6 and are expressed as percentage of viable cells as compared to vehicle-treated controls.
(§3) The MTT test was further extended to include alternative synephrine derivatives and a range of multiple myeloma cell lines for which the results are illustrated by FIGS. 3A, 3B and 4A. Human multiple myeloma cell lines L363, U266 and MM1.S were cultured in RPMI 1640 with Glutamax-I, supplemented with 10% FCS, 100 U/ml penicillin and 100 μg/ml streptomycin. Cells were seeded at 10000 cells/well in 96 well plates. Cells were incubated in the presence of test compounds or vehicle in a final volume of 0.2 ml for 24 or 48 hours at 37° C. The test compounds included in the test were the synephrine derivatives CpdA, Naphth, Benz and Isobut, and DEX as a comparative example. Subsequently, 20 μl of MTT solution (5 mg/ml in phosphate-buffered saline) was added to each well. After 4 hours incubation at 37° C., 80 μl of the extraction buffer (10% SDS, 0.01 M HCl) was added. After 48 hours incubation at room temperature, the optical densities at 590 nm were measured. Results are expressed as percentage of viable cells as compared to vehicle-treated controls.
A general note: Tetrazolium assays rely on reduction of a dye to a coloured formazan, in cell work by metabolically active cells.

The next data set relates to L363 cell line. Description: MTT test, cell viability of L363 cells. It counts as cell-based, human. The settings on record: Homo sapiens, L-363; 10^−4 M; 10% FCS; FIG. 3B; read-out: Block of L363 cell viability. The procedure:
as §1, §2, §3

Data set [2] in a line: MTT test, cell viability of L929sA fibroblasts. The settings on record: mouse, L929sA fibroblast cells, read-out: Block of L929sA cell viability. It counts as cell-based, murine. How it is done: as §1, §2
In a further MTT test, the activity of the synephrine derivatives on the inhibition of cell viability of non-immune cells was measured. […] Tests were performed for 24 hours and for 48 hours. The results are illustrated by FIGS. 5A and 5B for L929 cells, and by FIGS. 6A and 6B for A549 cells. It was observed that CpdA at 10^−5 M blocked cell viability of L929sA and A549 for not more than 10%.

The subject of a further data set is MG63b. Description: Q-PCR gene expression in osteosarcoma cell-line MG63b. In kind it is cell-based, human. The settings on record: 10 μM. How it is done:
(§4) CpdA was synthesized as described previously. […] They were sacrificed and livers were isolated. […] Gene expression of HPRT was used for normalization. […] Gene expression of HPRT was used for normalization. […] Gene expression of HPRT was used for normalization. Statistical significance was determined by one way anova. […] Gene expression of HPRT was used for normalization. […] Gene expression of HPRT was used for normalization. Statistical significance was determined by one way anova. […] Statistical significance was determined with a Kruskal-Wallis test.

Data set [3] concerns FLS cells (fibroblast-like synoviocytes). Briefly: Q-PCR/ELISA gene expression in primary FLS of RA patients. It counts as cell-based, human. How it is done: as §4
Western blot analysis was performed on total protein extracts with an anti-GR(H-300) antibody. The detection of ERK was used as a loading control. After 8 days of treatment liver samples were taken from the PBS, DEX (20 μg) or CpdA (300 μg) treated DBA/1 mice (FIG. 22B). Q-PCR was performed for the detection of GR in the different samples. Statistical significance was determined with a Mann-Whitney Test. FLS were pre-treated with solvent, DEX (1 μM) or CpdA (10 μM) for 1 hour (set-up 1) or 24 hours (set-up 2), as indicated in the figures. Afterwards, TNF (2000 units/ml) was added for 6 h. Western blot analysis was performed on total extracts with an anti-GR(H-300) antibody (FIG. 19A). Detection of ERK was used as a loading control. The Human Inflammation Array was incubated with medium of cultured FLS and developed following the manufacturer's instruction (FIG. 19B). Total RNA was isolated from the induced FLS and subjected to reverse transcriptase PCR. […] Gene expression of HPRT was used for normalization. Statistical significance was determined by one way anova. […] Since it has been proposed that the cellular sensitivity to GC is directly proportional to the receptor concentration, the mechanism of homologous down-regulation appears to drastically affect the cellular sensitivity of primary human RA-FLS to GC therapy. […] Such an effect can not be observed with CpdA. […] Therefore, it is not surprising that some patients who develop resistance to the therapeutic effects of GC, still display the unwanted effects associated with prolonged GC treatment. […] All publications and patent applications mentioned in this specification are herein incorporated by reference to the same extent as if each independent publication or patent application was specifically and individually indicated to be incorporated by reference. Other embodiments are within the scope of the claims.
For orientation: An ELISA detects its analyte on a solid surface through an enzyme-linked reagent.

Where two headings read alike, the source gives them in different places.

`CNCC(Cl)c1ccc(OC(C)=O)cc1.Cl` (stereo not drawn) [CpdA, 2-(4-acetoxyphenyl)-2-chloro-N-methyl-ethylammonium chloride]: the “Cell killing of U266 cells” value in data set [1] (10^−4M, serum-containing medium, FIG. 2B) came to 60%; in data set [1] (10^−5M, growth medium with 10% fetal calf serum, 48 hours, FIG. 2B), 10%; in data set [1] (10^−5M, serum-free growth medium, 24 hours, FIG. 2A) it was 60%. In addition, the “Effect on cell viability of U266 cells” value in data set [1] (10^−6 to 10^−5 M, 10% FCS, FIG. 3A) is listed as 15-20%. The cytotoxicity at 100 µM in data set [1] (Homo sapiens, U-266, 10^−4 M, 10% FCS, FIG. 3A, read-out: Block of U266 cell viability / cell killing) turned out to be 40%; in data set [1] (Homo sapiens, U-266, 10^−4M, serum-free medium, FIG. 2A, read-out: Cell killing / reduction of viability of U266 cells) it was 80%; in the data set on L363 cell line it was 50%. Besides, in data set [1] (Homo sapiens, U-266, 10^−6M, serum-free growth medium, 24 hours, FIG. 2A, read-out: Inhibition of viability of U266 cells), the cytotoxicity at 1 µM was determined as 40%. For the same molecule, the cytotoxicity at 24 h in data set [2] (10^−4 M, 24 hours, FIG. 5A) is 20%. The cytotoxicity at 48 h in data set [2] (10^−4 M, 48 hours, FIG. 5B) was found to be 60%. Further, the cytotoxicity in data set [2] (10^−5 M, 24 hours and 48 hours, FIGS. 5A and 5B) is not above 10%. Further, the “Expression of OPG” value was “does not down-regulate the expression of OPG” in the data set with MG63b (24 hours, FIG. 14B) and “does not down-regulate the expression of OPG” in data set [3] (10 μM, 24 hours, FIG. 18, solvent versus CpdA p>0.05). Besides, the “Expression of cathepsin K” value is on record as “does not stimulate the expression of cathepsin K” with MG63b (24 hours, FIG. 14B) and “does not stimulate the expression of cathepsin K” in data set [3] (10 μM, 24 hours, FIG. 18). The “Expression of pro-inflammatory mediators (anti-inflammatory effect)” value with MG63b (TNF 2000 U/ml 6 hours, FIG. 14A) is “anti-inflammatory effect”; in data set [3] (10 μM, TNF 2000 U/ml 6 hours, FIG. 17), “anti-inflammatory effect”. The “Repression of TNF-induced MCP-1, IL-8 and IL-6 after prolonged treatment (set-up 2)” value in data set [3] (10 μM pre-treated 24 hours, TNF 2000 units/ml 6 h, FIG. 19) was “still able to repress the TNF-induced expression of MCP-1, IL-8 and IL-6”. Besides, the RANKL/OPG ratio result in data set [3] (10 μM, 24 hours) is listed as “does not alter the RANKL/OPG ratio”. In addition, the “Expression of osteoclast differentiation markers M-CSF and RANKL” value in data set [3] (10 μM, 24 hours, FIG. 18, RANKL solvent versus CpdA p>0.05) is recorded as “does not stimulate the expression”. Also, the “Transactivation function of GR (GRE-driven PCOLCE2 and GS expression)” value in data set [3] (10 μM, FIG. 20) is given as “does not evoke the transactivation function of GR”.

(Values after US8039501B2, “Synephrine derivatives useful as anti-inflammatory agents” (Universiteit Gent, priority 2005, dated 2011).)
